From article PMC7221733, “Synthetic Kavalactone Analogues with Increased Potency and Selective Anthelmintic Activity against Larvae of Haemonchus contortus In Vitro” (Molecules, 2020)
Where two headings read alike, the source gives them in different places.

Key:
[1] = system: HepG2 human hepatoma cells; experiment: Cytotoxicity on HepG2 cells (CellTiter-Glo cell viability assay); type: cell-based; settings: for EC50: Homo sapiens, read-out: HepG2 EC50
Protocol: Synthesized compounds were tested for their toxicity on HepG2 human hepatoma cells, as described previously. In brief, compounds were tested in a 10-point, two-fold dilution series, commencing at 40 µM. The cells were cultured in Dulbecco’s modified Eagle’s medium (DMEM) supplemented with 10% fetal bovine serum (FBS) and incubated at 37 °C with 5% v/v CO2. The cells were seeded into 384-well plates at a density of 1 × 10^3 per well and exposed to compounds for 48 h. The toxicity was determined by CellTiter-Glo® cell viability assay (Promega, USA), which assessed the number of viable cells based on the quantity of ATP present. Matched percentages of etoposide and DMSO were used as positive and negative (untreated) controls, respectively. The EC50 values were determined as described in Section 3.3, and the selectivity index was calculated by dividing the EC50 value for HepG2 cells by the IC50 value for H. contortus.

Haemonchus contortus [2] = experiment: Larval development assay (xL3 to L4) of H. contortus in vitro; type: cell-based; settings: for IC50: read-out: Inhibition of Larval Development in H. Contortus IC50 (µM) ± SEM; for Anthelmintic activity in the larval development assay (in words): dilution series commencing at 100 µM
Protocol: The Haecon-5 strain of H. contortus was produced in experimental sheep, according to animal ethics guidelines of the University of Melbourne, Australia (permit no.1413429). The feces were collected from the infected sheep and incubated at 27 °C for 1 week, allowing first-stage larvae to emerge and develop to third-stage larvae (L3s). L3s were collected and stored at 10 °C until used in experiments; xL3s were prepared by treating L3s with 0.15% v/v sodium hypochlorite (NaClO) and incubated for 20 min at 38 °C, and subsequently washed five times with sterile physiological saline (pH 7.0). These xL3s were immediately incubated at 38 °C in sterile Luria Bertani (LB) broth supplemented with 100 IU/ml of penicillin, 100 µg/ml of streptomycin, and […] of amphotericin B (fungizone, antibiotic—antimycotic; cat. no. 15240-062; Gibco, Thermo Fisher Scientific, Waltham, MA, USA); this supplemented medium was designated as LB*.
In our previous study, larval development-inhibition results guided the fractionation of the active extract from P. methysticum, and the findings were consistent with subsequent potency assessments of the purified kavalactones. Therefore, the developmental inhibition assay for H. contortus was used to determine the activity/potency of the kavalactone analogues synthesized in the present study. In brief, all synthesized compounds as well as monepantel (Zolvix, Elanco Animal Health, Australia) and moxidectin (Cydectin, Virbac, France) (two positive controls) were individually tested for inhibition of larval development in H. contortus using an 18-point, two-fold dilution series, commencing at 100 µM. Compound solutions (in dimethyl sulfoxide [DMSO] plus LB*) were prepared and added to 96-well flat bottom plates to achieve the desired final concentrations in a final volume of 100 µl, and xL3s (as described in Section 3.2) were dispensed into individual wells at a density of 300 worms per well (in 50 µl of LB*). Matched concentrations of DMSO (0.25% in LB*) were used as negative (untreated) controls. The plates were incubated (10% v/v CO2) at 38 °C for 7 days. Larvae in each well were fixed with 50 µl of 1% iodine at 7 days, and the number of xL3s that developed to L4s in each well was counted by light microscopic examination at 20× magnification. L4s were differentiated from xL3s by their well-developed mouth and pharynx characteristics. The assay was repeated three times on different days using three replicates in each assay. The half-maximum inhibitory concentration (IC50) of each compound was determined by fitting the log10-transformed concentration to a variable slope four-parameter model using the GraphPad Prism (v. 8.3.1) software (GraphPad Software Inc., San Diego, CA, USA).

Haemonchus contortus [3] = system: Haemonchus contortus; set-up: method as in PMID 30739078; settings: cited from earlier work; for Phenotype induced in treated larvae / IC50: previous study; for IC50: purchased / isolated kavalactones, read-out: IC50 for inhibition of larval (L4) development of H. contortus
[4] = system: MCF10A, non-tumorigenic breast epithelial cells; set-up: method as in PMID 30739078; settings: in vitro cell proliferation assay; cited from earlier work
[5] = HepG2, 48 h exposure, CellTiter-Glo, highest concentration 40 µM
[6] = Haemonchus contortus, 168 h, xL3 to L4 development, 7 days, synthesized compounds, mean ± SEM
[7] = xL3 to L4 development, 7 days, synthesized compounds, mean ± SEM

Row | Structure (SMILES) | EC50 [1, 5] [µM] | IC50 (Haemonchus contortus [2]; [6]) [µM] | also measured
1 | CC(C)C[C@H](NC(=O)[C@H](Cc1ccccc1)NC(=O)c1cnccn1)B(O)O [Bortezomib, reference compound] | 0.01 | – | –
2 | COc1cc(/C=C/c2ccccc2)oc(=O)c1 [Compound 1, desmethoxyyangonin] | > 40 | 37.1 ± 3.1 | Exposure time sufficient to induce the Evi phenotype (Haemonchus contortus [3]; H. contortus): 30 h; Phenotype induced in treated larvae (Haemonchus contortus [3]): lethal ‘evisceration’ (Evi) phenotype; IC50 (Haemonchus contortus [3]): 31.7 µM; Toxicity on MCF10A cells [4]: limited toxicity
3 | COc1ccc(/C=C/c2cc(OC)cc(=O)o2)cc1 [Compound 2, yangonin] | > 40 | 15 ± 3 | Phenotype induced in treated larvae (Haemonchus contortus [3]): lethal ‘evisceration’ (Evi) phenotype; IC50 (Haemonchus contortus [3]): 23.7 µM; Toxicity on MCF10A cells [4]: limited toxicity
4 | COc1cc(/C=C/c2ccc(OC(F)(F)F)cc2)oc(=O)c1 [Compound 3] | > 40 | 1.9 ± 0.1 | Selectivity index (HepG2 EC50 / H. contortus IC50) ([1]; against H. contortus): > 20 fold
5 | COc1cc(/C=C/c2ccc(OC(F)F)cc2)oc(=O)c1 [Compound 4] | > 40 | 8.9 ± 0.3 | –
6 | COc1cc(/C=C/c2ccc(Oc3ccccc3)cc2)oc(=O)c1 [Compound 5] | > 40 | 5.2 ± 2.2 | –
7 | COc1cc(/C=C/c2ccc(Cl)cc2)oc(=O)c1 [Compound 6] | > 40 | 12.4 ± 3.5 | –
8 | COc1cc(/C=C/c2ccc(C)cc2)oc(=O)c1 [Compound 7] | > 40 | 12.6 ± 2.1 | –
9 | COc1cc(/C=C/c2ccc(C(F)(F)F)cc2)oc(=O)c1 [Compound 8] | > 40 | 10.3 ± 1.2 | –
10 | COc1cc(/C=C/c2ccc(N(C)C)cc2)oc(=O)c1 [Compound 9] | > 40 | > 50 | Anthelmintic activity in the larval development assay (in words) (Haemonchus contortus [2]): inactive at the highest concentration tested
11 | COc1cc(/C=C/c2ccc(N3CCOCC3)cc2)oc(=O)c1 [Compound 10] | > 40 | 6.4 ± 0.2 | –
12 | COc1cc(/C=C/c2ccc(N3CCNCC3)cc2)oc(=O)c1 [Compound 11] | > 40 | > 100 | Anthelmintic activity in the larval development assay (in words) (Haemonchus contortus [2]): inactive
13 | COC(=O)c1ccc(/C=C/c2cc(OC)cc(=O)o2)cc1 [Compound 12] | > 40 | > 100 | Anthelmintic activity in the larval development assay (in words) (Haemonchus contortus [2]): inactive at the highest concentration tested
14 | COc1cc(/C=C/c2ccc(C#N)cc2)oc(=O)c1 [Compound 13] | > 40 | > 100 | Anthelmintic activity in the larval development assay (in words) (Haemonchus contortus [2]): inactive at the highest concentration tested
15 | COc1cc(/C=C/c2ccccc2OC)oc(=O)c1 [Compound 14] | > 40 | 61.9 | IC50 (Haemonchus contortus [2]; [7]): > 100 µM
16 | COc1cccc(/C=C/c2cc(OC)cc(=O)o2)c1 [Compound 15] | > 40 | > 100 | IC50 (Haemonchus contortus [2]; [7]): 61.9 ± 7.3 µM
17 | COc1cc(/C=C/c2ccc3c(c2)OCO3)oc(=O)c1 [Compound 16] | – | – | IC50 (Haemonchus contortus [2]; Haemonchus contortus, 168 h): > 100 µM; EC50 ([1]; HepG2, 48 h): > 40 µM
18 | COc1cc(/C=C/c2cccc(C#N)c2)oc(=O)c1 [Compound 17] | > 40 | > 100 | –
19 | COC(=O)c1cccc(/C=C/c2cc(OC)cc(=O)o2)c1 [Compound 18] | > 40 | > 100 | –
20 | COc1cc(/C=C/c2ccc(OC)nc2)oc(=O)c1 [Compound 19] | > 40 | > 100 | Anthelmintic activity in the larval development assay (in words) (Haemonchus contortus [2]): inactive at the highest concentration tested
21 | C[C@](C#N)(COc1cc(C#N)ccc1C(F)(F)F)NC(=O)c1ccc(SC(F)(F)F)cc1 [Monepantel, monepantel, reference compound] | – | 0.07 ± 0.01 | –
22 | CO/N=C1\C[C@]2(C[C@@H]3C[C@@H](C/C=C(\C)C[C@@H](C)/C=C/C=C4\CO[C@@H]5[C@H](O)C(C)=C[C@@H](C(=O)O3)[C@]45O)O2)O[C@H](/C(C)=C/C(C)C)[C@H]1C [Moxidectin, moxidectin, reference compound] | – | 0.02 | –
23 | COC1=CC(=O)O[C@@H](CCc2ccccc2)C1 [dihydrokavain, reference compound] | – | – | Phenotype induced in treated larvae (Haemonchus contortus [3]): lethal ‘evisceration’ (Evi) phenotype; IC50 (Haemonchus contortus [3]): 208 µM; Toxicity on MCF10A cells [4]: limited toxicity
